In ChEMBL document CHEMBL5032490, “Neuroactive Type-A γ-Aminobutyric Acid Receptor Allosteric Modulator Steroids from the Hypobranchial Gland of Marine Mollusk, Conus geographus” (J Med Chem, 2021):
Active and inactive are the calls of the source.

Assays:
Neuron [1] = assay: Negative allosteric modulation of mouse GABA receptor in mouse peptidergic nociceptive DRG neurons assessed as inhibition of KCl-induced response at 10 uM; type: tissue-based; conditions: filed as negative allosteric modulator
Neuron [2] = assay: Negative allosteric modulation of mouse GABA receptor in mouse DRG neurons assessed as inhibition of KCl-induced response at 10 uM using cold thermosensors; type: tissue-based; conditions: filed as negative allosteric modulator
Mus musculus = assay: Anxiolytic activity in restraint stress induced anxiety mouse model assessed as total number of responses at 2 to 50 mg/kg, ip administered measured after 5 mins by open field test; type: functional, organism-based; conditions: dose 2-50 mg/kg
Neuron [3] = assay: Negative allosteric modulation of mouse GABA receptor in mouse C-low-threshold mechanoreceptive DRG neurons assessed as inhibition of KCl-induced response at 10 uM; type: tissue-based; conditions: filed as negative allosteric modulator
[4] = Induction of cytosolic calcium ion concentration in mouse microglia cells at 10 uM measured after 1 hr by Fura2AM dye based fluorescence microscopic analysis; type: functional
[5] = biological target: T1, GABA A receptor alpha-1/beta-1/gamma-2 (Homo sapiens, UniProt P14867+P18505+P18507); assay: Negative allosteric modulation activity at human GABAA alpha1beta1gamma2 stably expressed in HEK cells by whole cell patch clamp method; type: cell-based
T1 sequence (P14867 whole entry): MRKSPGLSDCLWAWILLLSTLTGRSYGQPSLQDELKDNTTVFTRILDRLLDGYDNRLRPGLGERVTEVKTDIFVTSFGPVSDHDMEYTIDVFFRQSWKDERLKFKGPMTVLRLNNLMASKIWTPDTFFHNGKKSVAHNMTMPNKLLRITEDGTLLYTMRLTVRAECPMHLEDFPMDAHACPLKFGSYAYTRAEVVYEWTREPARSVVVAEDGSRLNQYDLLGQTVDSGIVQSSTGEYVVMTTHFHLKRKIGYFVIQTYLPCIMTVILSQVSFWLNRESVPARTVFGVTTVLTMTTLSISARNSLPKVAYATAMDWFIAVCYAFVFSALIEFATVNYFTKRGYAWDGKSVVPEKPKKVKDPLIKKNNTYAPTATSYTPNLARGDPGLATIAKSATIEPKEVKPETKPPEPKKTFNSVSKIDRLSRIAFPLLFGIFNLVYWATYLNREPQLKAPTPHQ
T1 sequence (P18507 whole entry): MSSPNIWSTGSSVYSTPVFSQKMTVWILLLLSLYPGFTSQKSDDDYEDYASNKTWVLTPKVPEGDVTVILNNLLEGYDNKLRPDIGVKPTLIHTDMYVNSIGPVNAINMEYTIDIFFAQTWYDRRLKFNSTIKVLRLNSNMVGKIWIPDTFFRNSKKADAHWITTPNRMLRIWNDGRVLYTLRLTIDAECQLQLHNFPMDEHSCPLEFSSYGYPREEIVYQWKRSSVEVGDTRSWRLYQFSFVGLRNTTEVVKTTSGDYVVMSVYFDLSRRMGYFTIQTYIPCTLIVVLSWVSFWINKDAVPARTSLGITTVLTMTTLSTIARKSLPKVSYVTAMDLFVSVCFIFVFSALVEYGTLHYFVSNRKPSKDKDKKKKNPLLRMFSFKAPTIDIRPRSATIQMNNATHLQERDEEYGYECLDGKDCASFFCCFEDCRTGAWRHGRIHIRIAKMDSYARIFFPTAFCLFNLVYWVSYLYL
T1 sequence (P18505 whole entry): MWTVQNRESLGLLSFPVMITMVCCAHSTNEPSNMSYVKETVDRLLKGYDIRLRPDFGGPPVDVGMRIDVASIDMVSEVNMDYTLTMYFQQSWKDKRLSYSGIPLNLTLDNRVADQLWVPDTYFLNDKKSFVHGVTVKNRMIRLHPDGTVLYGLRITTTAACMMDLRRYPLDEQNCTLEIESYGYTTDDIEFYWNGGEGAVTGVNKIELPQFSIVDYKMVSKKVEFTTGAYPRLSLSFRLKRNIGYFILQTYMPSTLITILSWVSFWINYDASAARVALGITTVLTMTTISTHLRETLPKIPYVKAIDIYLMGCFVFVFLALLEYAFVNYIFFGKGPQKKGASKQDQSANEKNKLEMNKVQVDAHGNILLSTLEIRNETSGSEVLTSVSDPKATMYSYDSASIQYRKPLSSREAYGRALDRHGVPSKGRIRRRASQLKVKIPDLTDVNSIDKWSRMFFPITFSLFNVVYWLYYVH

[6] = biological target: T2, GABA-A receptor; alpha-5/beta-3/gamma-2 (Homo sapiens, UniProt P18507+P28472+P31644); assay: Negative allosteric modulation activity at human GABAA alpha5beta3gamma2 stably expressed in HEK cells by patch clamp method; type: cell-based
T2 sequence (P18507 whole entry): T1 sequence (P18507 whole entry)
T2 sequence (P28472 whole entry): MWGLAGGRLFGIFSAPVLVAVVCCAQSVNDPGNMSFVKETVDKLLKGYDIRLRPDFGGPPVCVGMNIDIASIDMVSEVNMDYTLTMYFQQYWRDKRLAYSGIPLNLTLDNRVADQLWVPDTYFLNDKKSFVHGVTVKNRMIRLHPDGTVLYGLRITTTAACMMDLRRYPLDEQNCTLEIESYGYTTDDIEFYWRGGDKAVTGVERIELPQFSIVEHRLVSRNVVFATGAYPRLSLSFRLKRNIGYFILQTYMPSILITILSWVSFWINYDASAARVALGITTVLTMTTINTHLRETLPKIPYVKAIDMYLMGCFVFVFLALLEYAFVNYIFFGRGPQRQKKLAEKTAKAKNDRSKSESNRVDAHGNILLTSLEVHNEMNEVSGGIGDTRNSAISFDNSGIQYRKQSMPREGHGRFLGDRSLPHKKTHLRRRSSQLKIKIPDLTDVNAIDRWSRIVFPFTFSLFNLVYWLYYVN
T2 sequence (P31644 whole entry): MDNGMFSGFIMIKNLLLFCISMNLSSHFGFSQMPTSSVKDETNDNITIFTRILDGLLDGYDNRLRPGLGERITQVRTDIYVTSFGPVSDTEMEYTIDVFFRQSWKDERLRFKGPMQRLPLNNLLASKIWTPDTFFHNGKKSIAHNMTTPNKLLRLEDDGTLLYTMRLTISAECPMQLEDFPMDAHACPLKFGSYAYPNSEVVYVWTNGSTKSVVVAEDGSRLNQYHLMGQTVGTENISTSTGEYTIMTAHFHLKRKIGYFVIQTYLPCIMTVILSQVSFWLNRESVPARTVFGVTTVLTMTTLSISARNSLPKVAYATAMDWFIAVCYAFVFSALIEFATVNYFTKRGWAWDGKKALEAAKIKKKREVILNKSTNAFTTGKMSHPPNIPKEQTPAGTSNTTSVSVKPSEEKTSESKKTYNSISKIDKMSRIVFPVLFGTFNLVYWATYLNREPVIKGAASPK

[7] = biological target: GABA A receptor alpha-4/beta-3/gamma-2 (Homo sapiens, UniProt P18507+P28472+P48169); assay: Negative allosteric modulation activity at human GABAA alpha4beta3gamma2 stably expressed in HEK cells by patch clamp method; type: cell-based
[8] = Reduction of ATP and Kcl-induced increase in cytosolic Ca2+ ion concentration mouse peptidergic nociceptive DRG neuron assessed as neuron population at 10 uM measured after 1 hr by Fura2AM dye based fluorescence microscopic analysis; type: functional; set-up: scale not given: the % may be the effect or the level left
[9] = Induction of cytosolic calcium ion concentration in mouse DRG other neuron subtype at 10 uM measured after 1 hr by Fura2AM dye based fluorescence microscopic analysis; type: functional

Chain of GABA A receptor alpha-4/beta-3/gamma-2 (P48169 whole entry, one chain of several): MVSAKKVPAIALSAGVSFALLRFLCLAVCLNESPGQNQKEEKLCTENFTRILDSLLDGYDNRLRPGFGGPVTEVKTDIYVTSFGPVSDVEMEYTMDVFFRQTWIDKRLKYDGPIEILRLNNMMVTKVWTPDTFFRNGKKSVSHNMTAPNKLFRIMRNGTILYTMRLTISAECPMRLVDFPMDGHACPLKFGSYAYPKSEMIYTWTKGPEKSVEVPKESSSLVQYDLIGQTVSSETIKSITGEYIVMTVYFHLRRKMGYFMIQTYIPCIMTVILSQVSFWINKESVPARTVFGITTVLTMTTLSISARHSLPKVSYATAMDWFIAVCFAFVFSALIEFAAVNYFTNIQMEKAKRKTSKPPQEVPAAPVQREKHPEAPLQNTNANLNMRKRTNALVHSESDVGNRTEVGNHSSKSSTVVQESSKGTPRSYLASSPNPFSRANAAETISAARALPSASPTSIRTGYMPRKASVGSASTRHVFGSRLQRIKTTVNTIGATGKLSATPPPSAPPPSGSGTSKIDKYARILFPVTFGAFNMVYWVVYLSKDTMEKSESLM

In the case of `CC(C)CCC[C@@H](C)[C@H]1CC[C@H]2[C@@H]3C(=O)C=C4C=CCC[C@]4(C)[C@H]3CC[C@]12C`, the Activity (Neuron [1]) is reported as “Active”, the Activity (Neuron [2]) is reported as “Active” and the Activity (Mus musculus) is reported as “inactive”. For the same compound, the Activity (Neuron [3]) was “Active”, the Activity [4] was 7% and the IC50 [5] was 1500 nM. The IC50 [6] was 19400 nM, the IC50 [7] was 1000 nM and the Activity [8] was 4%. It also gave an Activity [9] of 3%.
